Laboratory results reported in PubChem BioAssay (NCI).
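Each compound was tested at five concentrations against cells in 96-well plates for 48 hours. At the TGI there is no net growth.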

Assays:
Assay in all cases: NCI tumour cell line growth inhibition, 48 h
SNB-78 CNS = test system: SNB-78 CNS
A549 NSCLC = test system: A549 NSCLC
SF-268 CNS = test system: SF-268 CNS
CAKI-1 renal = test system: CAKI-1 renal
MALME-3M melanoma = test system: MALME-3M melanoma
SNB-75 CNS = test system: SNB-75 CNS
IGROV1 ovarian = test system: IGROV1 ovarian
LOX IMVI melanoma = test system: LOX IMVI melanoma
EKVX NSCLC = test system: EKVX NSCLC
UACC-257 melanoma = test system: UACC-257 melanoma
OVCAR-8 ovarian = test system: OVCAR-8 ovarian
SK-MEL-5 melanoma = test system: SK-MEL-5 melanoma
NCI-H460 lung = test system: NCI-H460 lung
XF 498 CNS = test system: XF 498 CNS
CCRF-CEM leukemia = test system: CCRF-CEM leukemia
TK-10 renal = test system: TK-10 renal
HL-60(TB) leukemia = test system: HL-60(TB) leukemia
HOP-18 NSCLC = test system: HOP-18 NSCLC
HOP-92 NSCLC = test system: HOP-92 NSCLC
HCC-2998 colon = test system: HCC-2998 colon
A498 renal = test system: A498 renal
OVCAR-4 ovarian = test system: OVCAR-4 ovarian
RPMI-8226 leukemia = test system: RPMI-8226 leukemia
KM12 colon = test system: KM12 colon
HCT-116 colon = test system: HCT-116 colon
K-562 leukemia = test system: K-562 leukemia
SNB-19 CNS = test system: SNB-19 CNS
HT29 colon = test system: HT29 colon
COLO 205 colon = test system: COLO 205 colon
KM20L2 colon = test system: KM20L2 colon
MOLT-4 leukemia = test system: MOLT-4 leukemia
DLD-1 colon = test system: DLD-1 colon
SW-620 colon = test system: SW-620 colon
ACHN renal = test system: ACHN renal
LXFL 529 NSCLC = test system: LXFL 529 NSCLC
RXF 393 renal = test system: RXF 393 renal
U251 CNS = test system: U251 CNS
SF-539 CNS = test system: SF-539 CNS
OVCAR-5 ovarian = test system: OVCAR-5 ovarian
NCI-H226 lung = test system: NCI-H226 lung
SF-295 CNS = test system: SF-295 CNS
RXF-631 renal = test system: RXF-631 renal
SR leukemia = test system: SR leukemia
SK-MEL-2 melanoma = test system: SK-MEL-2 melanoma
SK-MEL-28 melanoma = test system: SK-MEL-28 melanoma
SN12C renal = test system: SN12C renal
UO-31 renal = test system: UO-31 renal
DMS 114 small cell lung = test system: DMS 114 small cell lung
M19-MEL melanoma = test system: M19-MEL melanoma
SK-OV-3 ovarian = test system: SK-OV-3 ovarian
UACC-62 melanoma = test system: UACC-62 melanoma
OVCAR-3 ovarian = test system: OVCAR-3 ovarian
HCT-15 colon = test system: HCT-15 colon
NCI-H522 lung = test system: NCI-H522 lung
M14 melanoma = test system: M14 melanoma
DMS 273 small cell lung = test system: DMS 273 small cell lung
NCI-H23 lung = test system: NCI-H23 lung
HOP-62 NSCLC = test system: HOP-62 NSCLC
786-0 renal = test system: 786-0 renal

COc1nc(N)c(C(=O)CCl)c(=O)n1C
TGI (SNB-78 CNS): 40.2 µM | TGI (A549 NSCLC): 51.6 µM | TGI (SF-268 CNS): 55.2 µM | TGI (CAKI-1 renal): 23.4 µM | TGI (MALME-3M melanoma): 22.7 µM | TGI (SNB-75 CNS): 30.3 µM | TGI (IGROV1 ovarian): 30.2 µM | TGI (LOX IMVI melanoma): 20.8 µM | TGI (EKVX NSCLC): 31.7 µM | TGI (UACC-257 melanoma): 31.3 µM | TGI (OVCAR-8 ovarian): 52.8 µM | TGI (SK-MEL-5 melanoma): 28.5 µM | TGI (NCI-H460 lung): 39.5 µM | TGI (XF 498 CNS): 32.6 µM | TGI (CCRF-CEM leukemia): 79.8 µM | TGI (TK-10 renal): 29 µM | TGI (HL-60(TB) leukemia): 5.61 µM | TGI (HOP-18 NSCLC): 31.2 µM | TGI (HOP-92 NSCLC): 16.1 µM | TGI (HCC-2998 colon): 23 µM | TGI (A498 renal): 32.4 µM | TGI (OVCAR-4 ovarian): 33.2 µM | TGI (RPMI-8226 leukemia): 32.4 µM | TGI (KM12 colon): 30.4 µM | TGI (HCT-116 colon): 31.3 µM | TGI (K-562 leukemia): 34.3 µM | TGI (SNB-19 CNS): 52 µM | TGI (HT29 colon): 32.3 µM | TGI (COLO 205 colon): 30.1 µM | TGI (KM20L2 colon): 50.1 µM | TGI (MOLT-4 leukemia): 44.7 µM | TGI (DLD-1 colon): 27.6 µM | TGI (SW-620 colon): 28.5 µM | TGI (ACHN renal): 48.5 µM | TGI (LXFL 529 NSCLC): 27.1 µM | TGI (RXF 393 renal): 20.6 µM | TGI (U251 CNS): 29.9 µM | TGI (SF-539 CNS): 32.6 µM | TGI (OVCAR-5 ovarian): 37.2 µM | TGI (NCI-H226 lung): 20.5 µM | TGI (SF-295 CNS): 29.4 µM | TGI (RXF-631 renal): 31.6 µM | TGI (SR leukemia): 42.4 µM | TGI (SK-MEL-2 melanoma): 25.1 µM | TGI (SK-MEL-28 melanoma): 26.4 µM | TGI (SN12C renal): 45.2 µM | TGI (UO-31 renal): 67 µM | TGI (DMS 114 small cell lung): 33.9 µM

C[C@]12CC[C@H](O)CC1=CC[C@@H]1C2CC[C@]2(C)C(=O)N(N)C(=O)CC12 (stereo partly specified)
TGI (M19-MEL melanoma): > 100 µM | TGI (SNB-78 CNS): > 100 µM | TGI (A549 NSCLC): > 100 µM | TGI (SF-268 CNS): > 100 µM | TGI (CAKI-1 renal): > 100 µM | TGI (MALME-3M melanoma): > 100 µM | TGI (SNB-75 CNS): > 100 µM | TGI (SK-OV-3 ovarian): > 100 µM | TGI (UACC-62 melanoma): > 100 µM | TGI (IGROV1 ovarian): > 100 µM | TGI (LOX IMVI melanoma): > 100 µM | TGI (EKVX NSCLC): > 100 µM | TGI (UACC-257 melanoma): > 100 µM | TGI (OVCAR-8 ovarian): > 100 µM | TGI (SK-MEL-5 melanoma): > 100 µM | TGI (OVCAR-3 ovarian): > 100 µM | TGI (HCT-15 colon): > 100 µM | TGI (NCI-H460 lung): > 100 µM | TGI (XF 498 CNS): > 100 µM | TGI (CCRF-CEM leukemia): > 100 µM | TGI (NCI-H522 lung): > 100 µM | TGI (TK-10 renal): > 100 µM | TGI (HL-60(TB) leukemia): > 100 µM | TGI (HOP-18 NSCLC): > 100 µM | TGI (HOP-92 NSCLC): > 100 µM | TGI (HCC-2998 colon): > 100 µM | TGI (A498 renal): > 100 µM | TGI (M14 melanoma): > 100 µM | TGI (OVCAR-4 ovarian): > 100 µM | TGI (RPMI-8226 leukemia): > 100 µM | TGI (KM12 colon): > 100 µM | TGI (HCT-116 colon): > 100 µM | TGI (DMS 273 small cell lung): > 100 µM | TGI (K-562 leukemia): > 100 µM | TGI (SNB-19 CNS): > 100 µM | TGI (HT29 colon): > 100 µM | TGI (COLO 205 colon): > 100 µM | TGI (NCI-H23 lung): > 100 µM | TGI (KM20L2 colon): > 100 µM | TGI (MOLT-4 leukemia): > 100 µM | TGI (DLD-1 colon): > 100 µM | TGI (SW-620 colon): > 100 µM | TGI (ACHN renal): > 100 µM | TGI (LXFL 529 NSCLC): > 100 µM | TGI (RXF 393 renal): > 100 µM | TGI (U251 CNS): > 100 µM | TGI (SF-539 CNS): > 100 µM | TGI (OVCAR-5 ovarian): > 100 µM | TGI (NCI-H226 lung): > 100 µM | TGI (SF-295 CNS): > 100 µM | TGI (HOP-62 NSCLC): > 100 µM | TGI (RXF-631 renal): > 100 µM | TGI (SR leukemia): > 100 µM | TGI (SK-MEL-2 melanoma): > 100 µM | TGI (SK-MEL-28 melanoma): > 100 µM | TGI (786-0 renal): > 100 µM | TGI (SN12C renal): > 100 µM | TGI (UO-31 renal): > 100 µM
